From patent US20080008734A1, “Reduction of skin irritation caused by biomedical electrodes” (priority 2006, published 2008)

Experiments:
[1] = tested on: skin; assay: Stimulation erythema with antioxidant incorporated in the conductive hydrogel adhesive; type: in vivo; conditions: in UV cured acrylic hydrogel adhesive; this amount gave a very weak adhesive that cohesively failed
From the text: In the majority of conductive hydrogel adhesives used in these biomedical electrodes are UV cured acrylics formed by the free radical polymerization of hydrophilic acrylic monomers in water. UV light generates free radicals from photoinitiators, however antioxidants react with these free radicals thereby inhibiting the polymerization of the acrylic monomers. Antioxidants such as MEHQ are used to preserve acrylic monomers until use. […] A few ppm of the very potent antioxidant Astaxathin inhibited polymerization. The greater than 1500 ppm of MEHQ alone that was needed to prevent and/or alleviate stimulation erythema gave a very weak hydrogel adhesive that cohesively failed leaving residue on the skin.

[2] = Stability of SAP in the aqueous environment of hydrogel adhesives; type: physicochemical; conditions: pH 4.0±0.5 aqueous environment of the hydrogel adhesives
From the text: (See U.S. Pat. No. 6,842,636 B2 to Perrault, et al. and U.S. Pat. No. 6,115,625 to Heard et al.).

stability over time [2]	SMILES	amount of MEHQ alone needed to prevent and/or alleviate stimulation erythema [1]
	COc1ccc(O)cc1 [MEHQ, monomethyl ether of hydroquinone]	greater than 1500 ppm
not stable over time	O=C1O[C@H](C(O)CO)C(O)=C1OP(=O)(O)O (some centres unmarked) [SAP, Sodium Ascorbyl Phosphate]	
